Assay results published in patent US11161850B2, “Fused pyrazine derivatives as A2A / A2B inhibitors” (Incyte Corporation, priority 2018, dated 2021).
Read-outs that look alike come from different tables or passages of the source.

Legend:
Adenosine A2A = Adenosine A2A (Homo sapiens (Human), UniProt P29274); assay: A2A Tag-Lite HTRF assay; assay type: binding
Text: Example C. A2A Tag-Lite® HTRF Assay

[1] = biological target: human adenosine A2B receptor (Homo sapiens (Human), UniProt P29275); assay: Adenosine A2B Receptor Cyclic AMP GS Assay; assay type: cell-based; details: A2B_cAMP_EC50 (nM), HEK-293 cells expressing human A2B, agonist NECA 12 nM
Procedure: Example B. Adenosine A2B Receptor Cyclic AMP GS Assay
Stably transfected HEK-293 cells expressing the human adenosine A2B receptor (Perkin Elmer) were maintained in MEM culture medium with 10% FBS and 100 μg/mL Geneticin (Life Technologies). 18 to 24 hours prior to assay, geneticin was removed from culture. The cisbio cAMP-GS Dynamic kit utilizing the FRET (Fluorescence Resonance Energy Transfer) technology was used to measure cAMP accumulation in the cells. Compounds of the present disclosure at an appropriate concentration were mixed with 10000 cells/well in white 96 well half area plates (Perkin Elmer) for 30 min at room temperature gently shaking. Agonist, NECA (R&D Technologies) at 12 nM was added to each well for 60 min at room temperature gently shaking. Detection reagents, d2-labeled cAMP (acceptor) and anti-cAMP cryptate (donor) were added to each well for 60 min at rt gently shaking. Plates were read on Pherastar (BMG Labtech), fluorescence ratio 665/620 was calculated and EC50 determination was performed by fitting the curve of percent of control versus the log of the compound concentration using GraphPad Prism.

[2] = Tag-Lite Adenosine A2A labeled cells, fluorescent ligand 12.5 nM, read-out: A2A_Ki

Chain of Adenosine A2A (P29274 whole entry): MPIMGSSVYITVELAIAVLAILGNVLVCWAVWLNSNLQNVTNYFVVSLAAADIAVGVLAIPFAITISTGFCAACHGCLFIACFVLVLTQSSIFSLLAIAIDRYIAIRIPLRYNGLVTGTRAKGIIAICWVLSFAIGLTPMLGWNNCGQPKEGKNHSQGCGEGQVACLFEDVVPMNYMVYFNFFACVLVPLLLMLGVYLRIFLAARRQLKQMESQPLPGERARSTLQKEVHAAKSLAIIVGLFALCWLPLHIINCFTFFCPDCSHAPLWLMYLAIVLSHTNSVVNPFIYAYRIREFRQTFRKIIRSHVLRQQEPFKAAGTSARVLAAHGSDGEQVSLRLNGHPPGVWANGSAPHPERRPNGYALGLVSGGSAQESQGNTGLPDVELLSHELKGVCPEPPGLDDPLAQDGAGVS
Chain of human adenosine A2B receptor (P29275 whole entry): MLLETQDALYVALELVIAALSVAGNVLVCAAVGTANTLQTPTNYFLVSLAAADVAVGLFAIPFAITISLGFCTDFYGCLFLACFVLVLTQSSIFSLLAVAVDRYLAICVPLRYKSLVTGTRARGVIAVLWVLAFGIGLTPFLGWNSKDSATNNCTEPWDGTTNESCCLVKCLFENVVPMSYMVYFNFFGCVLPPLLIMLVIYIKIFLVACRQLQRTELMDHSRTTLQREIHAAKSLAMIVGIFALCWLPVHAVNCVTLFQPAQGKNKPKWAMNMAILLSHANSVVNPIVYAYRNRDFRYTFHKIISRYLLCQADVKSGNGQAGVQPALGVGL

Row | Compound | Ki (Adenosine A2A; [2]) [nM] | EC50 [1] [nM] | Ki (Adenosine A2A) [nM]
1 | N#Cc1cccc(-c2cn3nc(Cc4c(F)cccc4-c4cnn(CC(=O)N5CC(O)C5)c4)nc3c(N)n2)c1F [Example 118, 3-(8-amino-2-(2-fluoro-6-(1-(2-(3-hydroxyazetidin-1-yl)-2-oxoethyl)-1H-pyrazol-4-yl)benzyl)-[1,2,4]triazolo[1,5-a]pyrazin-6-yl)-2-fluorobenzonitrile] | < 10 | < 10 | –
2 | Cn1cc(-c2cccnc2Cc2nc3c(N)nc(-c4cccc(C#N)c4)c(-c4ccncn4)n3n2)cn1 [Example 122, 3-(8-Amino-2-((3-(1-methyl-1H-pyrazol-4-yl)pyridin-2-yl)methyl)-5-(pyrimidin-4-yl)-[1,2,4]triazolo[1,5-a]pyrazin-6-yl)benzonitrile] | < 10 | 10 to 100 | –
3 | N#Cc1cccc(-c2cn3nc(C(O)c4c(F)cccc4CN4CCN5C(=O)CCC5C4)nc3c(N)n2)c1F (racemic) [Example 113, 3-(8-amino-2-((2-fluoro-6-((6-oxohexahydropyrrolo[1,2-a]pyrazin-2(1H)-yl)methyl)phenyl)(hydroxy)methyl)-[1,2,4]triazolo[1,5-a]pyrazin-6-yl)-2-fluorobenzonitrile] | < 10 | 10 to 100 | –
4 | N#Cc1cccc(-c2nc(N)c3nc(Cc4ccccc4CN4CC[C@H](O)C4)nn3c2-c2ccncn2)c1 [Example 123, (S)-3-(8-Amino-2-(2-((3-hydroxypyrrolidin-1-yl)methyl)benzyl)-5-(pyrimidin-4-yl)-[1,2,4]triazolo[1,5-a]pyrazin-6-yl)benzonitrile] | < 10 | 10 to 100 | –
5 | N#Cc1cccc(-c2nc(N)c3cc(C(O)c4ccccc4F)nn3c2-c2ccncn2)c1 (centres unmarked) [Example 38, 3-(4-Amino-2-((2-fluorophenyl)(hydroxy)methyl)-7-(pyrimidin-4-yl)pyrazolo[1,5-a]pyrazin-6-yl)benzonitrile] | < 10 | < 10 | –
6 | Cc1nc(C(O)C(F)(F)F)c(-c2c(-c3cccc(C#N)c3F)nc(N)c3nc(Cc4ccccn4)nn23)o1 (centres unmarked) [Example 88, 3-(8-amino-5-(2-methyl-4-(2,2,2-trifluoro-1-hydroxyethyl)oxazol-5-yl)-2-(pyridin-2-ylmethyl)-[1,2,4]triazolo[1,5-a]pyrazin-6-yl)-2-fluorobenzonitrile] | < 10 | 10 to 100 | –
7 | C[C@@]1(C(=O)O)CCN(Cc2cccc(F)c2Cc2nc3c(N)nc(-c4cccc(C#N)c4)c(-c4ccncn4)n3n2)C1 [Example 65, (R)-1-(2-((8-amino-6-(3-cyanophenyl)-5-(pyrimidin-4-yl)-[1,2,4]triazolo[1,5-a]pyrazin-2-yl)methyl)-3-fluorobenzyl)-3-methylpyrrolidine-3-carboxylic Acid] | < 10 | 10 to 100 | –
8 | CCn1nccc1-c1c(-c2cccc(C#N)c2)nc(N)c2cc(Cc3ccccn3)nn12 [Example 18, 3-(4-Amino-7-(1-ethyl-1H-pyrazol-5-yl)-2-(pyridin-2-ylmethyl)pyrazolo[1,5-a]pyrazin-6-yl)benzonitrile] | < 10 | < 10 | –
9 | N#Cc1cccc(-c2nc(N)c3nc(C(O)c4ccccc4Cl)nn3c2-c2ccncn2)c1 (single isomer, unassigned) [Example 57, 3-(8-Amino-2-((2-chlorophenyl)(hydroxy)methyl)-5-(pyrimidin-4-yl)-[1,2,4]triazolo[1,5-a]pyrazin-6-yl)benzonitrile] | – | < 10 | < 10
10 | N#Cc1cccc(-c2cn3nc(Cc4ncccc4Nc4cnn(Cc5ccncc5)c4)nc3c(N)n2)c1F [Example 120, 3-(8-Amino-2-((3-((1-(pyridin-4-ylmethyl)-1H-pyrazol-4-yl)amino)pyridin-2-yl)methyl)-[1,2,4]triazolo[1,5-a]pyrazin-6-yl)-2-fluorobenzonitrile] | < 10 | 10 to 100 | –
